Assay results published in patent EP3064205A1, “Therapeutic use of isomeric forms of 2-(4-chlorophenyl)quinolin-4-yl)(piperidin-2-yl)methanol” (Glionova AB, priority 2015, dated 2016).
pIC50: −log10 of the molar value. Where two headings read alike, the source gives them in different places.

Assays:
Assay in all cases: 3D clonogenic assay (PDX)
Format in all cases: cell-based, human
CXF 1783 = settings: CXF 1783, Colorectal; for pIC50: Homo sapiens
How it was run: (§1)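 Tumor xenografts are dissociated with a collagenase/DNase/hyaluronidase/dispase cocktail, and the cells are frozen, then thawed and embedded in 0.4% agar over a 0.75% agar base. Compound is added at day 1 and left on continuously for 8–13 days. IC50 is taken as the curve inflection point or as the concentration at T/C = 50%.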

LXFE 397 = settings: LXFE 397, Lung Epidermoid; for pIC50: Homo sapiens
How it was run: as §1

GXF 251 = settings: GXF 251, Gastric; for pIC50: Homo sapiens
How it was run: as §1

LXFL 1674 = settings: LXFL 1674, Lung Large Cell; for pIC50: Homo sapiens
How it was run: as §1

HNXF 1842 = settings: HNXF 1842, Head and Neck; for pIC50: Homo sapiens
How it was run: as §1

CXF 280 = settings: CXF 280, Colorectal; for pIC50: Homo sapiens
How it was run: as §1

MAXF 713 = settings: MAXF 713, Breast; for pIC50: Homo sapiens
How it was run: as §1

PRXF PC-3M = settings: Prostate; for pIC50: Homo sapiens
How it was run: as §1

GXA 3040 = settings: GXA 3040, Asian Gastric; for pIC50: Homo sapiens
How it was run: as §1

CXF 975 = settings: CXF 975, Colorectal; for pIC50: Homo sapiens
How it was run: as §1

CXF 243 = settings: CXF 243, Colorectal; for pIC50: Homo sapiens
How it was run: as §1

HNXF 1853 = settings: HNXF 1853, Head and Neck; for pIC50: Homo sapiens
How it was run: as §1

CXF 676 = settings: CXF 676, Colorectal; for pIC50: Homo sapiens
How it was run: as §1

pIC50 (CXF 1783; read-out: abs. IC50): 5.03
pIC50 (CXF 1783; read-out: rel. IC50): 5.05
pIC50 (LXFE 397; read-out: abs. IC50): 5.29
pIC50 (LXFE 397; read-out: rel. IC50): 5.32
pIC50 (GXF 251; read-out: abs. IC50): 5.22
pIC50 (GXF 251; read-out: rel. IC50): 5.28
pIC50 (LXFL 1674; read-out: abs. IC50): 5.17
pIC50 (LXFL 1674; read-out: rel. IC50): 5.18
pIC50 (HNXF 1842; read-out: abs. IC50): 5.27
pIC50 (HNXF 1842; read-out: rel. IC50): 5.26
pIC50 (CXF 280; read-out: abs. IC50): 5.06
pIC50 (CXF 280; read-out: rel. IC50): 5.06
pIC50 (MAXF 713; read-out: abs. IC50): 5.04
pIC50 (MAXF 713; read-out: rel. IC50): 5.07
pIC50 (PRXF PC-3M; read-out: abs. IC50): 4.77
pIC50 (PRXF PC-3M; read-out: rel. IC50): 4.77
pIC50 (GXA 3040; read-out: abs. IC50): 5.05
pIC50 (GXA 3040; read-out: rel. IC50): 5.06
pIC50 (CXF 975; read-out: abs. IC50): 5.06
pIC50 (CXF 975; read-out: rel. IC50): 5.06
pIC50 (CXF 243; read-out: abs. IC50): 5.04
pIC50 (CXF 243; read-out: rel. IC50): 5.06
pIC50 (HNXF 1853; read-out: abs. IC50): 4.30
pIC50 (HNXF 1853; read-out: rel. IC50): 5.06
pIC50 (CXF 676; read-out: abs. IC50): 5.05
pIC50 (CXF 676; read-out: rel. IC50): 5.06
SMILES: O[C@H](c1cc(-c2ccc(Cl)cc2)nc2ccccc12)[C@@H]1CCCCN1 [S1, (R)-(2-(4-chlorophenyl)quinolin-4-yl)((S)-piperidin-2-yl)methanol]
b (bottom plateau of concentration-effect curve) (CXF 1783): 42
t (top plateau of concentration-effect curve) (CXF 1783): 100
b (bottom plateau of concentration-effect curve) (LXFE 397): 35
t (top plateau of concentration-effect curve) (LXFE 397): 100
b (bottom plateau of concentration-effect curve) (GXF 251): 34
t (top plateau of concentration-effect curve) (GXF 251): 111
b (bottom plateau of concentration-effect curve) (LXFL 1674): 9
t (top plateau of concentration-effect curve) (LXFL 1674): 93
b (bottom plateau of concentration-effect curve) (HNXF 1842): 15
t (top plateau of concentration-effect curve) (HNXF 1842): 77
b (bottom plateau of concentration-effect curve) (CXF 280): 5
t (top plateau of concentration-effect curve) (CXF 280): 101
b (bottom plateau of concentration-effect curve) (MAXF 713): 43
t (top plateau of concentration-effect curve) (MAXF 713): 108
b (bottom plateau of concentration-effect curve) (PRXF PC-3M): 3
t (top plateau of concentration-effect curve) (PRXF PC-3M): 98
b (bottom plateau of concentration-effect curve) (GXA 3040): 13
t (top plateau of concentration-effect curve) (GXA 3040): 94
b (bottom plateau of concentration-effect curve) (CXF 975): 19
t (top plateau of concentration-effect curve) (CXF 975): 105
b (bottom plateau of concentration-effect curve) (CXF 243): 46
t (top plateau of concentration-effect curve) (CXF 243): 102
b (bottom plateau of concentration-effect curve) (HNXF 1853): 50
t (top plateau of concentration-effect curve) (HNXF 1853): 106
b (bottom plateau of concentration-effect curve) (CXF 676): 19
t (top plateau of concentration-effect curve) (CXF 676): 105
